Test results reported in PMC4730117, “In vitro Biochemical Characterization of All Barley Endosperm Starch Synthases” (Frontiers in Plant Science, 2016).

Columns and labels:
Assay in all cases: glycan microarray on nitrocellulose, anti-His detection
HvSSIIa = molecular target: T1, HvSSIIa (Hordeum vulgare, UniProt Q8H1Y8); conditions: protein 30 μg/mL in PBS with 5% milk powder; printed oligosaccharide; strong binding
T1 construct: without predicted chloroplast transit peptide, N-terminal His-tag, codon-optimised, E. coli
T1 sequence (Q8H1Y8 61-802): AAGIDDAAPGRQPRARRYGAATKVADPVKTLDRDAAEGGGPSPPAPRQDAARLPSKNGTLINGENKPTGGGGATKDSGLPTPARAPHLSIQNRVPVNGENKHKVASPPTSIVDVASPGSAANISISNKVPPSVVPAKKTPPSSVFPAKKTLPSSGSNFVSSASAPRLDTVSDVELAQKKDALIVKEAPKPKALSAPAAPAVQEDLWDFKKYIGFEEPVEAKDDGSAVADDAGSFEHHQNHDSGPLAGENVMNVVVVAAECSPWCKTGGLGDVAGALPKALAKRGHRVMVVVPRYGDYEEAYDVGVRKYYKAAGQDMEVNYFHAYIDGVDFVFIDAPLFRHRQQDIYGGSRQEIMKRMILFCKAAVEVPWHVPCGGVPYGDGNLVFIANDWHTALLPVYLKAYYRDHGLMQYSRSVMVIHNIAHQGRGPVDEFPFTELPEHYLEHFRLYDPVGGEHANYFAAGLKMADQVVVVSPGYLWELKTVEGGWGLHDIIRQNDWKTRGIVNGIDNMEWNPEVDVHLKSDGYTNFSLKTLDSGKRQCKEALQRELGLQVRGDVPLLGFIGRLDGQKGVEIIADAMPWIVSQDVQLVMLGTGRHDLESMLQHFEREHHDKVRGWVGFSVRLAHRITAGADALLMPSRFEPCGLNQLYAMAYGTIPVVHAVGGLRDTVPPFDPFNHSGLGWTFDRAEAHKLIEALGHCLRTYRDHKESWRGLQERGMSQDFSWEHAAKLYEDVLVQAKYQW

CBM53-3 = molecular target: T2, CBM53-3 (Hordeum vulgare, UniProt G1FUP7); conditions: protein 30 μg/mL in PBS with 5% milk powder; printed oligosaccharide; strong binding
T2 construct: third CBM53 domain of HvSSIIIa only, C-terminal His-tag, vector pET151, E. coli; borders only in supplement

HvSSIV = molecular target: T3, HvSSIV (Hordeum vulgare, UniProt F2CUZ5); conditions: protein 30 μg/mL in PBS with 5% milk powder; printed oligosaccharide; strong binding
T3 construct: without predicted chloroplast transit peptide, C-terminal His-tag, codon-optimised, E. coli
T3 sequence (F2CUZ5 49-914): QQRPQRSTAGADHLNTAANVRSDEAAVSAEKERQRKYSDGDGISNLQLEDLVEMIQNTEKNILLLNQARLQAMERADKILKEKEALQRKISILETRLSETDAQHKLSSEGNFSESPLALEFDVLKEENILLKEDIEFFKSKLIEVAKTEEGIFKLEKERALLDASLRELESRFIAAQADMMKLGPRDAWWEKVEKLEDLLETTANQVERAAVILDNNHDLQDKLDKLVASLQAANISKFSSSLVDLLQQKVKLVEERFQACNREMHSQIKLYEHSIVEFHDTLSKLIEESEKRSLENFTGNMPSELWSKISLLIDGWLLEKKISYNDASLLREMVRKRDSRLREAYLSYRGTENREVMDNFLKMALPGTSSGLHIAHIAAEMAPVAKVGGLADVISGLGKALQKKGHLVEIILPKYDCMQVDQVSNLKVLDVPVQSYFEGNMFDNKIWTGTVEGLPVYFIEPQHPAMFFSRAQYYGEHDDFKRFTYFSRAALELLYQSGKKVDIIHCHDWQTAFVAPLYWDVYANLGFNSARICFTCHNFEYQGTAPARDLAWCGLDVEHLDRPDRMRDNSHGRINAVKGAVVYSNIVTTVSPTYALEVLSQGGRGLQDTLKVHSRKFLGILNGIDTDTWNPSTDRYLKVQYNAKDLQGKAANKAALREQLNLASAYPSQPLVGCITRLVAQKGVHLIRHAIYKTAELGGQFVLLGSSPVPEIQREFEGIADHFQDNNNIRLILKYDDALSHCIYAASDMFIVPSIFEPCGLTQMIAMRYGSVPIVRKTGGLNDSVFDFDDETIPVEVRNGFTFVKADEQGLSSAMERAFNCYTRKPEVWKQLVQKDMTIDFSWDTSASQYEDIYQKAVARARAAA

HvGBSSI = molecular target: T4, HvGBSSI (Hordeum vulgare, UniProt P09842); conditions: protein 30 μg/mL in PBS with 5% milk powder; printed oligosaccharide; weaker binding
T4 construct: gene WAXY; without predicted chloroplast transit peptide, N-terminal His-tag, codon-optimised, E. coli
T4 sequence (P09842 71-603): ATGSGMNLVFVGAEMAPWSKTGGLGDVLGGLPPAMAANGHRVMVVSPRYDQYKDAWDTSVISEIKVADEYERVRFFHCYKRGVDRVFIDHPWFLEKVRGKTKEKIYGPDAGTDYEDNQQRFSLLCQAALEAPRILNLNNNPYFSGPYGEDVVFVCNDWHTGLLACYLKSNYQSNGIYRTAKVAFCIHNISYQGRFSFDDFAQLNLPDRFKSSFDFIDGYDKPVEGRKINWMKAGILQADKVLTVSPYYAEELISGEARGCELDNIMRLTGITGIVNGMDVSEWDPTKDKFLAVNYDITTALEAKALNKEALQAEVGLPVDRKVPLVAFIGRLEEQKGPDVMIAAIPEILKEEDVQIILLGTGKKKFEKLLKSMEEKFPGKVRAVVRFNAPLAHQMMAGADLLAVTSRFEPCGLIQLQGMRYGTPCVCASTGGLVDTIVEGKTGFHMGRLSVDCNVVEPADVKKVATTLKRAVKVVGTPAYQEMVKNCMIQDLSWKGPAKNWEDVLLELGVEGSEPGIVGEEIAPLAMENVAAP

T2 sequence (G1FUP7 entry or part of it): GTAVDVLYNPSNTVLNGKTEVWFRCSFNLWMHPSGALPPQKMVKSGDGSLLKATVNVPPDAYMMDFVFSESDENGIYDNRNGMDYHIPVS

SMILES: O=P(O)(O)O[C@H]1[C@H](O[C@H]2O[C@H](CO)[C@@H](O)[C@H](O)[C@H]2O)[C@@H](CO)OC(O)[C@@H]1O (stereo partly shown) [3-phosphomaltose]
- glycan microarray on nitrocellulose, anti-His detection (HvSSIIa): SSIIa, CBM53-3, and SSIV all showed strong binding to 3-phosphomaltose
- glycan microarray on nitrocellulose, anti-His detection (CBM53-3): SSIIa, CBM53-3, and SSIV all showed strong binding to 3-phosphomaltose
- glycan microarray on nitrocellulose, anti-His detection (HvSSIV): SSIIa, CBM53-3, and SSIV all showed strong binding to 3-phosphomaltose
- glycan microarray on nitrocellulose, anti-His detection (HvGBSSI): while GBSSI showed weaker binding and binding was non-detectable for SSI
